The target of assay [1] is T1, human serotonin transporter (hSERT) (Homo sapiens, UniProt P31645).
T1 construct: expressed in transfected cells; host or cells: HEK-293
Kind of assay: SPA radioligand binding at human serotonin transporter (3H-citalopram). The protocol:
The compounds are tested for biological activity by their ability to inhibit binding of selective radioligands at the human serotonin and noradrenaline transporters (SERT and NET, respectively), using scintillation proximity assay (SPA) technology. The SPA binding is performed using cellular membrane preparations prepared from cell lines expressing human cDNA encoding either SERT or NET (hSERT, hNET), using the radioligands 3H-citalopram and 3H-nisoxetine.
Human embryonic kidney cells (HEK-293) expressing each transporter are maintained as a continuous culture, using standard cell culture techniques, in 50 mL of growth medium (see Media and Buffers for composition) in 225 cm^2 flasks, at 37° C. in a humidified atmosphere with 5% CO2 present. Cells are passaged from a 90% confluent monolayer at a ratio of 1:3-1:4. For cell harvesting, the growth medium is removed from the monolayer and the cells are incubated with cell dissociation solution (Sigma) until showing signs of dissociation. The cells are subsequently knocked from the base of the flask and pelleted by centrifugation for storage (frozen at −80° C.) prior to further use.
Cell pellets are thawed on ice and resuspended in 3 mL of membrane preparation buffer (see Media and Buffers for composition) per 1 mL of packed cell volume, using a vortex mixer to disperse the cell pellet. • After incubation on ice for 10 minutes, the suspension is homogenised for four individual 10 second intervals using a hand-held homogeniser. The homogenate is then centrifuged at 1075×g for 20 minutes at 4° C. • The supernatants are then collected and retained. Initial cell & nuclei pellets (P1) are subsequently rehomogenised and centrifuged using the conditions cited above, and the supernatants collected and pooled with those retained from the first spin.
The pooled supernatants are centrifuged at 35000×g for 30 minutes at 4° C., and the supernatants discarded. The pellets (P2) are then resuspended in 1 mL of membrane preparation buffer per 1 mL of the original packed cell volume. Protein concentrations are then measured and the membrane suspension was finally frozen in aliquots of set volume and stored at −80° C. prior to use in assays.
The specific SPA bead type differed for each transporter, wheat germ agglutinin-coated yttrium silicate (YSi WGA) SPA beads are used for hSERT and WGA-coated polyvinyltoluene (PvT WGA) SPA beads for hNET assays. For each batch of membrane used, optimal concentrations of bead and membrane are determined
Tritiated radioligands specific to each transporter (3H-citalopram for hSERT and ^3H-nisoxetine for hNET) are used. The assay free radioligand concentration is expressed as a percentage of the total free radioligand concentration to give an estimate of the radioligand depletion. The radioligand depletion in assays for both transporters is less than 30% to ensure that there was sufficient radioligand available for binding. The ligand depletion value is also used for selecting the optimal assay conditions when using new batches of membranes.
The affinity of the specific radioligand for the respective transporter is determined for each membrane batch at the selected protein and bead concentrations. This is achieved by the determination of the KD, the concentration of free radioligand at which 50% of the transporter binding sites were occupied. The mean KD for a radioligand at a batch of membranes is determined from data from a minimum of three separate assays. The mean KD is subsequently used for all assays using the membrane batch profiled to enable determination of Ki values of compounds studied using the method determined by Cheng and Prussoff (Cheng Y C and Prusoff W H. Relationship between the inhibition constant (Ki) and the concentration of inhibitor which causes 50% inhibition of an enzymatic reaction. Biochem Pharmacol 1973; 22:[…].)
The required amount of membrane is thawed on ice and added to a predetermined volume of bead suspension in assay buffer. […]

For assay [2], the target named is T2, human noradrenaline transporter (hNET) (Homo sapiens, UniProt P23975).
T2 construct: expressed in transfected cells; host or cells: HEK-293
Kind of assay: SPA radioligand binding at human noradrenaline transporter (3H-nisoxetine).
Protocol: The affinity of the specific radioligand for the respective transporter is determined for each membrane batch at the selected protein and bead concentrations. […] The mean KD for a radioligand at a batch of membranes is determined from data from a minimum of three separate assays.
The required amount of membrane is thawed on ice and added to a predetermined volume of bead suspension in assay buffer. The beads are then pre-coupled by incubating the predetermined protein quantity per mg of bead on a shaker at a temperature of 4° C. for 2 hours. Subsequently, the bead/membrane complex is spun down at 865×g for 5 minutes. The resulting pellet is resuspended in assay buffer and this spin/wash step is then repeated. The final pellet is then resuspended in assay buffer at the specific concentration required for the final assay.
An aliquot of [^3H]-radioligand stock is diluted in assay buffer to give a pre-determined final assay concentration less than the equilibrium dissociation constant (KD) value.
All test compounds are prepared at a concentration of 4 mM in 100% dimethyl sulphoxide (DMSO) from dry samples.
The same volume of assay buffer is added to specific wells of the plate to enable subsequent measurement of total radioligand binding. Furthermore, 20 μL a high concentration of compound specific to each transporter assay is subsequently added to predetermined wells to determine non-specific binding (NSB).

[3] abbreviates: hNET membranes from HEK-293 cells, 3H-nisoxetine, SPA, read-out: NRI Ki.
The mark [4] stands for this setting: hSERT membranes from HEK-293 cells, 3H-citalopram, SPA, read-out: SRI Ki.

The structures appear in SMILES notation. Counter-ions that a name gives are not always drawn. Like-named read-outs stand apart in the source and are kept apart here.

T1 sequence (P31645 whole entry): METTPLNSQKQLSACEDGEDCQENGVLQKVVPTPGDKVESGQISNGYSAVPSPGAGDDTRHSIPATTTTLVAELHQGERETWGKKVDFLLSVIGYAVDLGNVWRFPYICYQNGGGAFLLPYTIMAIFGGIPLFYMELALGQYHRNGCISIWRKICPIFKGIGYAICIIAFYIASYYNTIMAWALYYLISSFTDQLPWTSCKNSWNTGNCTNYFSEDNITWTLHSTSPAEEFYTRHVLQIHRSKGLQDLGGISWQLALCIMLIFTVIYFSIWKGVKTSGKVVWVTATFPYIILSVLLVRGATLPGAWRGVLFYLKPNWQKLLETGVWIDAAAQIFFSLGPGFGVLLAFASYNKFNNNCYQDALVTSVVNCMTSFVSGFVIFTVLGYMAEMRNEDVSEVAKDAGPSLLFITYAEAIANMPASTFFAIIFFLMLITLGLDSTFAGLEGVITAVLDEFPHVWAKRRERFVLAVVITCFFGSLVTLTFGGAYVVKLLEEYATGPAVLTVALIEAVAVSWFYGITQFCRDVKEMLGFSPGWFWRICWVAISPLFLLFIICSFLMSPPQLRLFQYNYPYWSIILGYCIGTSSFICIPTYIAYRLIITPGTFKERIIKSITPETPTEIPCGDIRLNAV
T2 sequence (P23975 whole entry): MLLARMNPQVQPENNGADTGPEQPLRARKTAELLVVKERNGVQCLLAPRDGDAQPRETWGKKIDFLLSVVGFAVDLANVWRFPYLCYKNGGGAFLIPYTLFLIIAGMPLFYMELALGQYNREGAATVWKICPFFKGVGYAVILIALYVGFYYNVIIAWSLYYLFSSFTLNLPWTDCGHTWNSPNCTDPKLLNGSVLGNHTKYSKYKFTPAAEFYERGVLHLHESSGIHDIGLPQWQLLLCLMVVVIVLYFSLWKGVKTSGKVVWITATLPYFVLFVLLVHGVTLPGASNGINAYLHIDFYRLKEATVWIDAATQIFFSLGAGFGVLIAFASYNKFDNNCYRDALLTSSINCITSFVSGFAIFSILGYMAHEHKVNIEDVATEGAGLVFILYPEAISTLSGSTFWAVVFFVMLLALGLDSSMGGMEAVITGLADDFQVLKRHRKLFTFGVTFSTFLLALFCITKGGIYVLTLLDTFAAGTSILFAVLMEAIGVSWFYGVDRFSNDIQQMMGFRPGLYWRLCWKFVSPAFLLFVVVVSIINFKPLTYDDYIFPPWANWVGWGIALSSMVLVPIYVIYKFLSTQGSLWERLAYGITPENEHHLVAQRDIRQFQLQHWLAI

One may read the Ki as a dissociation constant, usually derived from enzyme kinetics or from competition with a known ligand. Consider `O=C(c1ccccc1Oc1ccccc1)N(c1ccccc1)[C@H]1CCNC1` [Example 14, 2-phenoxy-N-phenyl-N-[(3S)-pyrrolidin-3-yl]benzamide hydrochloride], for which the Ki in assay [1] was 67 nM; in assay [2] (setting [3]) it was 3 nM.

Consider `CCCN(C(=O)c1cc(F)ccc1Oc1ccccc1)[C@H]1CCNC1` [Example 7, 5-fluoro-2-phenoxy-N-propyl-N-[(3S)-pyrrolidin-3-yl]benzamide hydrochloride], for which the Ki turned out to be 2400 nM in assay [1] (setting [4]) and 9 nM in assay [2] (setting [3]).

As to `O=C(c1ccccc1C1CCCC1)N(CC1CC1)[C@H]1CCNC1` [Example 19, 2-cyclopentyl-N-(cyclopropylmethyl)-N-[(3S)-pyrrolidin-3-yl]benzamide hydrochloride], the results for the Ki in assay [1] (setting [4]) and in assay [2] (setting [3]) were 500 nM and 16 nM, respectively.

As to `O=C(c1ccccc1Oc1ccccc1)N(C1CCCC1)[C@H]1CCNC1` [Example 4, N-Cyclopentyl-2-phenoxy-N-[(3S)-pyrrolidin-3-yl]benzamide hydrochloride], the Ki in assay [1] (setting [4]) was 70 nM; in assay [2] (setting [3]), 12 nM.

With `CSc1ccccc1C(=O)N(CC1(C)CCC1)[C@H]1CCNC1` [Example 9, N-[(1-methylcyclobutyl)methyl]-2-(methylthio)-N-[(3S)-pyrrolidin-3-yl]benzamide hydrochloride], the Ki is 20 nM in assay [1] (setting [4]) and 6 nM in assay [2].

On to `CSc1ccccc1C(=O)N(C1CCCCC1)[C@H]1CCNC1` [Example 20, N-cyclohexyl-2-(methylthio)-N-[(3S)-pyrrolidin-3-yl]benzamide hydrochloride], for which the Ki in assay [1] (setting [4]) stood at 17 nM; in assay [2] (setting [3]), 5 nM.
